Values joined by “and” are separate entries in the source; they are usually repeats but may differ in a detail not shown here. Identical values can stand only once. Where a SMILES comes first, the peptide text is derived from it. [ ]: non-standard residue; d: D form. Hyp = O=C(O)[C@@H]1C[C@@H](O)CN1
How the values were obtained:
VEGF-A = test: Example 9 Luminex, LPS hPBMCs: VEGF-A; format: cell-based, human; settings: no LPS
Description: (§1) Treatment Human PBMCs were pretreated with YY-101, YDE-011 and YDE-043 or reference compound; Xiidra® at various concentration (ranging from 1 nM to 100 uM) for 2 h before stimulation. An equal volume of 0.5% DMSO was used as a vehicle control. Then, the cells were treated with LPS at 5 ug/ml. The supernatants from treated cells were harvested at 24 h and placed in a 96 well for Luminex cytokine & chemokine profiling using a Luminex 200 multiplex assay (Luminex; R&D system, USA).
(§2) The main study arm with triplicate wells per group in a 24-well plate: • 1. Blank • 2. PBMC: 0.5% DMSO • 3. PBMC+LPS (5 ug/ml) • 4. PBMC+YY-101 100 uM • 5. PBMC+YY-101 10 uM • 6. PBMC+YY-101 1 uM • 7. PBMC+YY-101 0.1 uM • 8. PBMC+YY-101 0.01 uM • 9. PBMC+LPS (5 ug/ml)+Xiidra®100 uM • 10. PBMC+LPS (5 ug/ml)+Xiidra® 10 uM • 11. PBMC+LPS (5 ug/ml)+Xiidra® 1 uM • 12. PBMC+LPS (5 ug/ml)+Xiidra®0.1 uM • 13. PBMC+LPS (5 ug/ml)+Xiidra®0.01 uM • 14. PBMC+LPS (5 ug/ml)+Xiidra®0.001 uM • 15. PBMC+LPS (5 ug/ml)+YY-101 100 uM • 16. PBMC+LPS (5 ug/ml)+YY-101 10 uM • 17. PBMC+LPS (5 ug/ml)+YY-101 1 uM • 18. PBMC+LPS (5 ug/ml)+YY-101 0.1 uM • 19. PBMC+LPS (5 ug/ml)+YY-101 0.01 uM • 20. PBMC+LPS (5 ug/ml)+YY-101 0.001 uM • 21. PBMC+LPS (5 ug/ml)+YDE-011 100 uM • 22. PBMC+LPS (5 ug/ml)+YDE-011 10 uM • 23. PBMC+LPS (5 ug/ml)+YDE-011 1 uM • 24. PBMC+LPS (5 ug/ml)+YDE-011 0.1 uM • 25. PBMC+LPS (5 ug/ml)+YDE-011 0.01 uM • 26. PBMC+LPS (5 ug/ml)+YDE-011 0.001 uM • 27. PBMC+LPS (5 ug/ml)+YDE-043 100 uM • 28. PBMC+LPS (5 ug/ml)+YDE-043 10 uM • 29. PBMC+LPS (5 ug/ml)+YDE-043 1 uM • 30. PBMC+LPS (5 ug/ml)+YDE-043 0.1 uM • 31. PBMC+LPS (5 ug/ml)+YDE-043 0.01 uM • 32. PBMC+LPS (5 ug/ml)+YDE-043 0.001 uM
(§3) Multiplex assay was used to measure 30 cytokines and chemokines. The 1:2, 1:10 and 1:200 diluted cell supernatant and serial dilution of the standard were dispensed into a 96 well plate at 50 ul/well. Then, the pre-mixed cocktail of antibody-coated magnetic beads was dispensed at 50 ul/well and incubated at room temperature for 2 h in a horizontal orbital microplate shaker at 800±500 rpm. The beads were washed using a magnetic device to prevent loss. The biotin-antibody was dispensed in 50 ul of each well and incubated at room temperature for 1 h in a shaker at 800±500 rpm. After washing, streptavidin-PE was added at 50 ul/well and incubated at room temperature for 30 min in a shaker under the same conditions. Finally, after washing, wash buffer (100 ul/well) was added to the plate and incubated in a shaker for 2 min. The Luminex™ 200 setting were set according to the manufacturer's protocol. The data was calculated with a standard five-parameter logistic nonlinear regression analysis of the data (xPonent software 4.2, USA). The levels of cytokine/chemokine are normalized to the live cell counts (1×10^5 cells/mL) and presented as concentrations per mL (pg/mL or ng/mL).

CCL3/MIP-1 alpha = test: Example 9 Luminex, LPS hPBMCs: CCL3/MIP-1 alpha; format: cell-based, human
Description: as §1, §2, §3

[1] = PBMC + test article 1 uM, single replicates
[2] = PBMC + test article 10 uM, Mean
[3] = PBMC + test article 10 uM, single replicates
[4] = PBMC + test article 100 uM, Mean
[5] = PBMC + test article 100 uM, single replicates
[6] = PBMC + LPS(5 ug/ml) + test article 0.001 uM, Mean
[7] = PBMC + LPS(5 ug/ml) + test article 0.001 uM, individual replicates
[8] = PBMC + LPS(5 ug/ml) + test article 0.01 uM, Mean
[9] = PBMC + LPS(5 ug/ml) + test article 0.01 uM, individual replicates
[10] = PBMC + LPS(5 ug/ml) + test article 0.1 uM, Mean
[11] = PBMC + LPS(5 ug/ml) + test article 0.1 uM, individual replicates
[12] = PBMC + LPS(5 ug/ml) + test article 1 uM, Mean
[13] = PBMC + LPS(5 ug/ml) + test article 1 uM, individual replicates
[14] = PBMC + LPS(5 ug/ml) + test article 10 uM, Mean
[15] = PBMC + LPS(5 ug/ml) + test article 10 uM, individual replicates
[16] = PBMC + LPS(5 ug/ml) + test article 100 uM, Mean
[17] = PBMC + LPS(5 ug/ml) + test article 100 uM, individual replicates
[18] = PBMC + test article 1 uM, no LPS, Mean
[19] = PBMC + test article 1 uM, no LPS, individual replicates
[20] = PBMC + test article 10 uM, no LPS, Mean
[21] = PBMC + test article 10 uM, no LPS, individual replicates
[22] = PBMC + test article 100 uM, no LPS, Mean
[23] = PBMC + test article 100 uM, no LPS, individual replicates

Question: Which results are given for `CC(C)C[C@H](NC(=O)CNC(=O)[C@H](CC(=O)O)NC(=O)[C@H](CCC(N)=O)NC(=O)CNC(=O)[C@@H]1C[C@@H](O)CN1)C(=O)N[C@@H](C)C(=O)NCC(=O)N1CCC[C@H]1C(=O)N[C@@H](CCCCN)C(=O)O` [YY-101] (H-[Hyp]GQDGLAGPK-OH; N-terminus and C-terminus assumed)?
Answer: MFI, Bead name: VEGF-A (VEGF-A; [1]): 1.3 and 0.3; conc/live cell, Bead name: VEGF-A (VEGF-A; [1]): 1.5 pg/10^5 and 1.1 pg/10^5; Concentration, Bead name: VEGF-A (VEGF-A; [2]): 7.9 pg/mL; MFI, Bead name: VEGF-A (VEGF-A; [2]): 1.0; conc/live cell, Bead name: VEGF-A (VEGF-A; [2]): 1.3 pg/10^5; Concentration, Bead name: VEGF-A (VEGF-A; [3]): 7.3 pg/mL and 8.5 pg/mL; MFI, Bead name: VEGF-A (VEGF-A; [3]): 0.8 and 1.3; conc/live cell, Bead name: VEGF-A (VEGF-A; [3]): 1.1 pg/10^5 and 1.4 pg/10^5; Concentration, Bead name: VEGF-A (VEGF-A; [4]): 3.6 pg/mL; MFI, Bead name: VEGF-A (VEGF-A; [4]): −0.8; conc/live cell, Bead name: VEGF-A (VEGF-A; [4]): 0.5 pg/10^5; Concentration, Bead name: VEGF-A (VEGF-A; [5]): 3.6 pg/mL; MFI, Bead name: VEGF-A (VEGF-A; [5]): −0.8; conc/live cell, Bead name: VEGF-A (VEGF-A; [5]): 0.6 pg/10^5 and 0.5 pg/10^5; Concentration (CCL3/MIP-1 alpha; [6]): 26885.9 pg/mL; conc/live cell (CCL3/MIP-1 alpha; [6]): 4200.1 pg/10^5; Concentration (CCL3/MIP-1 alpha; [7]): 27986.1 pg/mL and 27195.8 pg/mL and 25475.7 pg/mL; conc/live cell (CCL3/MIP-1 alpha; [7]): 4909.8 pg/10^5 and 3830.4 pg/10^5 and 3860.0 pg/10^5; Concentration (CCL3/MIP-1 alpha; [8]): 28932.4 pg/mL; conc/live cell (CCL3/MIP-1 alpha; [8]): 4694.7 pg/10^5; Concentration (CCL3/MIP-1 alpha; [9]): 29329.0 pg/mL and 29395.7 pg/mL and 28072.3 pg/mL; conc/live cell (CCL3/MIP-1 alpha; [9]): 4582.7 pg/10^5 and 4899.3 pg/10^5 and 4602.0 pg/10^5; Concentration (CCL3/MIP-1 alpha; [10]): 28457.4 pg/mL; conc/live cell (CCL3/MIP-1 alpha; [10]): 4886.3 pg/10^5; Concentration (CCL3/MIP-1 alpha; [11]): 28362.4 pg/mL and 28665.1 pg/mL and 28344.5 pg/mL; conc/live cell (CCL3/MIP-1 alpha; [11]): 4574.6 pg/10^5 and 5512.5 pg/10^5 and 4571.7 pg/10^5; Concentration (CCL3/MIP-1 alpha; [12]): 28059.0 pg/mL; conc/live cell (CCL3/MIP-1 alpha; [12]): 4314.1 pg/10^5; Concentration (CCL3/MIP-1 alpha; [13]): 28714.8 pg/mL and 27440.0 pg/mL and 28022.0 pg/mL; conc/live cell (CCL3/MIP-1 alpha; [13]): 4557.9 pg/10^5 and 3864.8 pg/10^5 and 4519.7 pg/10^5; Concentration (CCL3/MIP-1 alpha; [14]): 29972.3 pg/mL; conc/live cell (CCL3/MIP-1 alpha; [14]): 4549.0 pg/10^5; Concentration (CCL3/MIP-1 alpha; [15]): 30117.5 pg/mL and 30769.7 pg/mL and 29029.8 pg/mL; conc/live cell (CCL3/MIP-1 alpha; [15]): 5019.6 pg/10^5 and 4807.8 pg/10^5 and 3819.7 pg/10^5; Concentration (CCL3/MIP-1 alpha; [16]): 33310.8 pg/mL; conc/live cell (CCL3/MIP-1 alpha; [16]): 5765.5 pg/10^5; Concentration (CCL3/MIP-1 alpha; [17]): 35374.6 pg/mL and 31775.7 pg/mL and 32782.2 pg/mL; conc/live cell (CCL3/MIP-1 alpha; [17]): 5615.0 pg/10^5 and 5125.1 pg/10^5 and 6556.4 pg/10^5; conc/live cell (CCL3/MIP-1 alpha; PBMC + test article 0.01 uM, no LPS, Mean): 0.0 pg/10^5; conc/live cell (CCL3/MIP-1 alpha; PBMC + test article 0.1 uM, no LPS, Mean): 0.0 pg/10^5; Concentration (CCL3/MIP-1 alpha; [18]): 588.0 pg/mL; conc/live cell (CCL3/MIP-1 alpha; [18]): 53.5 pg/10^5; Concentration (CCL3/MIP-1 alpha; [19]): 588.0 pg/mL; conc/live cell (CCL3/MIP-1 alpha; [19]): 106.9 pg/10^5 and 0.0 pg/10^5; Concentration (CCL3/MIP-1 alpha; [20]): 1997.0 pg/mL; conc/live cell (CCL3/MIP-1 alpha; [20]): 156.0 pg/10^5; Concentration (CCL3/MIP-1 alpha; [21]): 1997.0 pg/mL; conc/live cell (CCL3/MIP-1 alpha; [21]): 312.0 pg/10^5 and 0.0 pg/10^5; Concentration (CCL3/MIP-1 alpha; [22]): 1030.2 pg/mL; conc/live cell (CCL3/MIP-1 alpha; [22]): 80.5 pg/10^5; Concentration (CCL3/MIP-1 alpha; [23]): 1030.2 pg/mL; conc/live cell (CCL3/MIP-1 alpha; [23]): 161.0 pg/10^5 and 0.0 pg/10^5

From patent publication US20230146455A1, “TREATMENT OF INFLAMMATORY DISEASES WITH PEPTIDES AND PHARMACEUTICAL COMPOSITIONS” (Yuyu Pharma, Inc., priority 2020, published 2023)
